Laboratory results as given in ChEMBL document CHEMBL4049404, “Discovery of (R)-1-(3-(4-Amino-3-(3-chloro-4-(pyridin-2-ylmethoxy)phenyl)-1H-pyrazolo[3,4-d]pyrimidin-1-yl)piperidin-1-yl)prop-2-en-1-one (CHMFL-EGFR-202) as a Novel Irreversible EGFR Mutant Kinase Inhibitor with a Distinct Binding Mode” (J Med Chem, 2017).

Assays:
[1] = target: Cytoplasmic tyrosine-protein kinase BMX (Homo sapiens) (UniProt P51813); assay: Binding affinity to wild-type human BMX expressed in bacterial system assessed as control score at 1 uM by KINOMEScan assay
[2] = target: Serine/threonine-protein kinase 10 (Homo sapiens) (UniProt O94804); assay: Binding affinity to wild-type human LOK expressed in bacterial system assessed as control score at 1 uM by KINOMEScan assay
[3] = target: Cytoplasmic tyrosine-protein kinase BMX (Homo sapiens, UniProt P51813); assay: Inhibition of full-length recombinant human His-tagged BMX expressed in baculovirus by Z'-LYTE assay
[4] = target: Tyrosine-protein kinase BTK (Homo sapiens, UniProt Q06187); assay: Inhibition of full-length recombinant human His-tagged BTK cytoplasmic domain expressed in baculovirus by Z'-LYTE assay
[5] = target: Receptor tyrosine-protein kinase erbB-2 (Homo sapiens, UniProt P04626); assay: Inhibition of recombinant human […] ERBB2 cytoplasmic domain (676 to 1255 residues) expressed in baculovirus by Z'-LYTE assay
[6] = target: Insulin receptor (Homo sapiens) (UniProt P06213); assay: Inhibition of Tel-fused INSR (unknown origin) expressed in mouse BAF3 cells assessed as growth inhibition after 72 hrs by CellTiter-Glo assay; assay type: cell-based
[7] = target: Insulin-like growth factor 1 receptor (Homo sapiens) (UniProt P08069); assay: Inhibition of Tel-fused IGF1R (unknown origin) expressed in mouse BAF3 cells assessed as growth inhibition after 72 hrs by CellTiter-Glo assay; assay type: cell-based
[8] = target: Epidermal growth factor receptor (Homo sapiens, UniProt P00533, L858R/T790M); assay: Inhibition of EGFR L858R/T790M mutant in human NCI-H1975 cells assessed as reduction in ERK phosphorylation at Thr202/Tyr204 measured after 4 hrs by Western blot analysis; assay type: cell-based
[9] = target: Epidermal growth factor receptor (Homo sapiens, UniProt P00533, L858R); assay: Inhibition of EGFR L858R mutant expressed in human H3255 cells assessed as reduction in ERK phosphorylation at Thr202/Tyr204 measured after 4 hrs by Western blot analysis; assay type: cell-based
[10] = target: T1, Epidermal growth factor receptor (Homo sapiens, UniProt P00533); assay: Inhibition of wild-type EGFR in human A549 cells assessed as reduction in STAT3 phosphorylation at Y705 site at 0.01 to 3 uM by Western blot analysis; assay type: cell-based; settings: a549, 3 µM
[11] = target: T1, Epidermal growth factor receptor; assay: Inhibition of wild-type EGFR in human A549 cells assessed as reduction in Akt phosphorylation at 473 site at 0.01 to 3 uM by Western blot analysis; assay type: cell-based; settings: a549, 3 µM
[12] = target: T1, Epidermal growth factor receptor; assay: Inhibition of wild-type EGFR in human NCI-H2122 cells assessed as reduction in STAT3 phosphorylation at Y705 site at 0.01 to 3 uM by Western blot analysis; assay type: cell-based
[13] = target: T1, Epidermal growth factor receptor; assay: Inhibition of wild-type EGFR in human NCI-H2122 cells assessed as reduction in eIF4E phosphorylation at Ser209 site at 0.01 to 3 uM by Western blot analysis; assay type: cell-based
[14] = tested on: Rattus norvegicus; assay: AUC (0 to t) in Sprague-Dawley rat plasma at 1 mg/kg, iv after 8 hrs; assay type: ADME, organism-based; design: time < 8 hr, dose 1 mg/kg, route intravenous; settings: in vivo
[15] = Apparent plasma clearance in Sprague-Dawley rat at 1 mg/kg, iv after 8 hrs; assay type: ADME, organism-based
[16] = target: T1, Epidermal growth factor receptor; assay: Inhibition of wild type EGFR autophosphorylation at Y1068 in human NCI-H2122 cells at 0.01 to 3 uM after 4 hrs by Western blot analysis; assay type: cell-based

T1 sequence (P00533 whole entry): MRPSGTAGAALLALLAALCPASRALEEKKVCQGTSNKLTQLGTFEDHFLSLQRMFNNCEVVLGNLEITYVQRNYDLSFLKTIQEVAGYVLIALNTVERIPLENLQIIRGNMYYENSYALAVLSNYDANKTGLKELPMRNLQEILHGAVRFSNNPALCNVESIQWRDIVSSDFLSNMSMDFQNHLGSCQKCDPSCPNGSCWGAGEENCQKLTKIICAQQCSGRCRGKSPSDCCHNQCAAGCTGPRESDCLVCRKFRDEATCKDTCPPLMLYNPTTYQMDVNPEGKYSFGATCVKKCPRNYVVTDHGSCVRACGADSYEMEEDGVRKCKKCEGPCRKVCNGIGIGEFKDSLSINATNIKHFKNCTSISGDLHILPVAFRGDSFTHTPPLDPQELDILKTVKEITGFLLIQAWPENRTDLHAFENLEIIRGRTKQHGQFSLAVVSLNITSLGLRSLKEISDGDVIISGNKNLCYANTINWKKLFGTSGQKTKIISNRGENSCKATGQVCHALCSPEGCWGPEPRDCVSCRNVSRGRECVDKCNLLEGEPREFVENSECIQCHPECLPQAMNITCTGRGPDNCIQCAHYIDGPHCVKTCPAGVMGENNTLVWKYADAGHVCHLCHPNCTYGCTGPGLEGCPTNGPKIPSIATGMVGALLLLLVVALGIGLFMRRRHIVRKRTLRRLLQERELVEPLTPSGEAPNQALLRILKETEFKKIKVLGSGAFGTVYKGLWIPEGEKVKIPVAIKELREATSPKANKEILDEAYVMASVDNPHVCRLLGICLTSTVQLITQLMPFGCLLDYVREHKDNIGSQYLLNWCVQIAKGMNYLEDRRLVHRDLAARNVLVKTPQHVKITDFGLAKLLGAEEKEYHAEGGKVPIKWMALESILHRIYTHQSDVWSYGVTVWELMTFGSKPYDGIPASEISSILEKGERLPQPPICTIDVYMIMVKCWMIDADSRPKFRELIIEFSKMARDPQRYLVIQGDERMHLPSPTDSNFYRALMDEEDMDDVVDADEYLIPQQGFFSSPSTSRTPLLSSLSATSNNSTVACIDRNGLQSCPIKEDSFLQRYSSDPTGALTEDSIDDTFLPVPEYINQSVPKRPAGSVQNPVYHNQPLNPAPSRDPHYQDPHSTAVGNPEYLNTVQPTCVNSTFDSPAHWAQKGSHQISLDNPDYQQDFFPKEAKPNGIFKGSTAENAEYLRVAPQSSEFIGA
Chain of Cytoplasmic tyrosine-protein kinase BMX (P51813 whole entry, the tested form may be a part): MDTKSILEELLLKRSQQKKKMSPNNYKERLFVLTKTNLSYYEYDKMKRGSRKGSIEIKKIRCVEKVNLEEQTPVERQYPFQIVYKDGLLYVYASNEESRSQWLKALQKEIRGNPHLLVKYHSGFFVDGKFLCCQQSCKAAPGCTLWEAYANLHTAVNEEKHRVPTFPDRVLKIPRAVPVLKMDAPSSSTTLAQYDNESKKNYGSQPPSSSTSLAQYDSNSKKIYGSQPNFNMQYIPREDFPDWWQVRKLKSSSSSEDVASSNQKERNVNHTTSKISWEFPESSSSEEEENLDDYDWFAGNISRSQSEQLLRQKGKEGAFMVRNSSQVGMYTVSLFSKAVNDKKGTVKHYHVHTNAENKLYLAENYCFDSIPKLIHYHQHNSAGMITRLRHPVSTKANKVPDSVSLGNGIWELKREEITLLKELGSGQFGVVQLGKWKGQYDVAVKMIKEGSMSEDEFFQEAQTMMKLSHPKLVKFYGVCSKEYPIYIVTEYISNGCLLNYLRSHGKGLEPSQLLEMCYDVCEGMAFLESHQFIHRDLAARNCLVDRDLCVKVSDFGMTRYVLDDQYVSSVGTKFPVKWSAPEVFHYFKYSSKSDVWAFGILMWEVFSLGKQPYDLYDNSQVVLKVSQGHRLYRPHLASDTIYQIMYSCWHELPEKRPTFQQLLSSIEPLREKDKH
Chain of Cytoplasmic tyrosine-protein kinase BMX (Homo sapiens) (P51813 whole entry): as the sequence (P51813 whole entry, the tested form may be a part) above
Chain of Epidermal growth factor receptor (Homo sapiens, UniProt P00533, L858R/T790M) (P00533 25-1210 T790M/L858R limits assumed): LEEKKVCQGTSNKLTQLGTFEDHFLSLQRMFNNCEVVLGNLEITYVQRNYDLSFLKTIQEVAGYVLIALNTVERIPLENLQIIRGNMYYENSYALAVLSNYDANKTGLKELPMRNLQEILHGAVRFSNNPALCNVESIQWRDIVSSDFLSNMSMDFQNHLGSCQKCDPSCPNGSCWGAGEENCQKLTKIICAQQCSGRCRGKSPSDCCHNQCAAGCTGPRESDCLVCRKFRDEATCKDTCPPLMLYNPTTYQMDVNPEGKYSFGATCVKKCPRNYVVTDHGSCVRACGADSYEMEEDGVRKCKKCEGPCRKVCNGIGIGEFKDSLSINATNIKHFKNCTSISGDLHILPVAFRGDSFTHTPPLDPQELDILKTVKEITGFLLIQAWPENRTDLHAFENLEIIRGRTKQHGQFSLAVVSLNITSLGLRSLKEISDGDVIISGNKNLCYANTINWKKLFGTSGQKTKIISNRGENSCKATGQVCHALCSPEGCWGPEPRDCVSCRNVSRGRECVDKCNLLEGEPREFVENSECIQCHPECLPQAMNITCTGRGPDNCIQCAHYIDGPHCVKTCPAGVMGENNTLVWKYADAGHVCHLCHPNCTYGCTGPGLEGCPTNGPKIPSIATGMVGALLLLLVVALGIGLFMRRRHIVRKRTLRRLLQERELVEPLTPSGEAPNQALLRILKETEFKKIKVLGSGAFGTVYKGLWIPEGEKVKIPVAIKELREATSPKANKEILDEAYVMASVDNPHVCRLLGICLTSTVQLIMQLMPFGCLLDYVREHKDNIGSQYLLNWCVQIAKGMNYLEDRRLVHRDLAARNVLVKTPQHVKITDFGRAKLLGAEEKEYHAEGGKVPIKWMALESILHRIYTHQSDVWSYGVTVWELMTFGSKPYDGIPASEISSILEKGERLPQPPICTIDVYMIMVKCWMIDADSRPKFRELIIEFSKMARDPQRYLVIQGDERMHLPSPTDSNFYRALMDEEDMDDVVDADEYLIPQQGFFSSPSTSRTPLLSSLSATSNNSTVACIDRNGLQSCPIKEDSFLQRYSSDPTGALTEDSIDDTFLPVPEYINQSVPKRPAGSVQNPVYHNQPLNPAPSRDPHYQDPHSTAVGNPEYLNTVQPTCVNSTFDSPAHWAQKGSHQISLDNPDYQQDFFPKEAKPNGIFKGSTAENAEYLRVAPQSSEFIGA
Chain of Tyrosine-protein kinase BTK (Q06187 whole entry, the tested form may be a part): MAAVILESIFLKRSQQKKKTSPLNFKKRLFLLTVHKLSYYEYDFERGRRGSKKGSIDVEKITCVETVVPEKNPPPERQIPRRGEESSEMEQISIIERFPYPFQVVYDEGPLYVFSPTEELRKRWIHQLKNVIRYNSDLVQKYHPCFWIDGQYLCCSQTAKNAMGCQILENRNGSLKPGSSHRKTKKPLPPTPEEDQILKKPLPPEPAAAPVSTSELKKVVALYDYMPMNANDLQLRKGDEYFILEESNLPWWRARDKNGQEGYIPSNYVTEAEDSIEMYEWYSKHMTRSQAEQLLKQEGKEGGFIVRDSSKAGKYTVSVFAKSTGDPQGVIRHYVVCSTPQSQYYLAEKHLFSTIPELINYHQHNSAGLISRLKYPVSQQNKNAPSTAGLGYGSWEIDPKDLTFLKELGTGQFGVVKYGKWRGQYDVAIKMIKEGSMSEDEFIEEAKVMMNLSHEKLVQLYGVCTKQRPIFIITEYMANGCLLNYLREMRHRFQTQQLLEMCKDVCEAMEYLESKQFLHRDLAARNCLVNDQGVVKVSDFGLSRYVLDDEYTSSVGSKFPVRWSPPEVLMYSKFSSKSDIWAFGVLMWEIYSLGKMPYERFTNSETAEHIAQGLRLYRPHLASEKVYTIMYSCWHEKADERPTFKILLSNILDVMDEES
Chain of Epidermal growth factor receptor (Homo sapiens, UniProt P00533, L858R) (P00533 25-1210 L858R limits assumed): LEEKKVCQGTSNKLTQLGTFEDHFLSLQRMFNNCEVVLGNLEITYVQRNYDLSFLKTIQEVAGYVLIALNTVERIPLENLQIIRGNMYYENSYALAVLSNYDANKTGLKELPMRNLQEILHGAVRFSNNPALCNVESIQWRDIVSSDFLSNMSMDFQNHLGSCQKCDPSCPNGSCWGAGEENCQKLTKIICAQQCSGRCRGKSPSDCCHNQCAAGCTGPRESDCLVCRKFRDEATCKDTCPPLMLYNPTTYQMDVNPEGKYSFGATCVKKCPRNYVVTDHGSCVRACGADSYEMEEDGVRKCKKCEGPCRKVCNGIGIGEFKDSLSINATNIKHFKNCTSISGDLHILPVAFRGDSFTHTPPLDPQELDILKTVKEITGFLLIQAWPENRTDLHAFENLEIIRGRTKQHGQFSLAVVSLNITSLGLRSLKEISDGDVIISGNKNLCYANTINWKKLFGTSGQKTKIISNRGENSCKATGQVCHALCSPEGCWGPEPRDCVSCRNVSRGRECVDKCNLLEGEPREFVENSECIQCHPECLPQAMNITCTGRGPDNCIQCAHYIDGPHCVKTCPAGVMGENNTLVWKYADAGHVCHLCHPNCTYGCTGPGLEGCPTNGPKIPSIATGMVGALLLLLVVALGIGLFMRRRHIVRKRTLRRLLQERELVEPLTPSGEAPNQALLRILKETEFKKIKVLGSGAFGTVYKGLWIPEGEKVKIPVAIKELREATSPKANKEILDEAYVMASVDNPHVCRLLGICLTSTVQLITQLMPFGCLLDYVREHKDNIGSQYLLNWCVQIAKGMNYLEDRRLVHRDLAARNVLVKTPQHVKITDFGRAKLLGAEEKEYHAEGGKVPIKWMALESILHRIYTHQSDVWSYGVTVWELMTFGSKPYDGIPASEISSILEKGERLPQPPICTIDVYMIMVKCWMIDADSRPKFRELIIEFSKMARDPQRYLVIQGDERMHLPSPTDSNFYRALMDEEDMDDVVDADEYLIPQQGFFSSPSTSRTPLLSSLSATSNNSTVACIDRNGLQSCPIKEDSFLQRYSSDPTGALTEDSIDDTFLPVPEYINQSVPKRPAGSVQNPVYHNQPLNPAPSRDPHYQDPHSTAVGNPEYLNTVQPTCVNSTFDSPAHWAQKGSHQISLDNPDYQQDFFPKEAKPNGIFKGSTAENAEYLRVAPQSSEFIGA

## C=CC(=O)N1CCC[C@@H](n2nc(-c3ccc(OCc4ccccn4)c(Cl)c3)c3c(N)ncnc32)C1
[1]
  Activity: 0.9%
[2]
  Activity: 0.95%
[3]
  IC50: 0.111 µM
[4]
  IC50: 0.0245 µM
[5]
  IC50: 0.0081 µM
[6]
  GI50: 3.5 µM
[7]
  GI50: > 10 µM
[8]
  EC50: < 0.01 µM
[9]
  EC50: < 0.01 µM
[10]
  inhibition (INH): Not Active
[11]
  inhibition (INH): Not Active
[12]
  inhibition (INH): Not Active
[13]
  inhibition (INH): Not Active
[14]
  AUCt: 404 to 2340 ng/mL/h
[15]
  clearance: 41.3 mL/min/kg
[16]
  inhibition (INH): Active
